Experimental data as given in article PMC2779455, “The E3 Ubiquitin-Ligase Bmi1/Ring1A Controls the Proteasomal Degradation of Top2α Cleavage Complex – A Potentially New Drug Target” (PLoS ONE, 2009).

Target: T1, Ring1A (Homo sapiens, UniProt Q06587)
T1 construct: gene RING1; recombinant GST fusion of Ring1A (N-terminal HA tag, C-terminal six-histidine tag) in complex with GST-Bmi1, from E. coli; with Bmi1
T1 sequence (Q06587 1-406): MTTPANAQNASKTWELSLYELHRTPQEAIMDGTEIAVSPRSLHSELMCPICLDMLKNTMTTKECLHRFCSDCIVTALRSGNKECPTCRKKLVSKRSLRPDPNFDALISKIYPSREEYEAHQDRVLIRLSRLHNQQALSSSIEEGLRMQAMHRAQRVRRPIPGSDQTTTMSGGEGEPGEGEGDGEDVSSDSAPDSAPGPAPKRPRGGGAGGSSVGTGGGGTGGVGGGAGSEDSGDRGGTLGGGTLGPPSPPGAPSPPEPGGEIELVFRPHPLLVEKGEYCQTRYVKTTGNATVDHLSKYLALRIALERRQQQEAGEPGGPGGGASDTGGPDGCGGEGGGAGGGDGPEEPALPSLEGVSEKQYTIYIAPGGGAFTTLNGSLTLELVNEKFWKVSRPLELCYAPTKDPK
T1 sequence (P35226 1-326 partner): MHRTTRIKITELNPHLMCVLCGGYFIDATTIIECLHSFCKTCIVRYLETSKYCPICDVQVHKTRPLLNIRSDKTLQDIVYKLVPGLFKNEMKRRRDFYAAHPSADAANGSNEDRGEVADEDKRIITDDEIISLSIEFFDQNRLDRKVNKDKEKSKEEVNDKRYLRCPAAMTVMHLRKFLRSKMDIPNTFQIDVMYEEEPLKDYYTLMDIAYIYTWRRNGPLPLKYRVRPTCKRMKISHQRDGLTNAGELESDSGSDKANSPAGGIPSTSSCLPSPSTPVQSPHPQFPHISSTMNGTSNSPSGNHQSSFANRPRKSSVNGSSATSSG
Assay: cell-free HTRF ubiquitination assay (E1, UbcH5a, Flag-ubiquitin), confirmed by gel-based Western blot
Assay type: biochemical

## O=C1C(=Cc2cccnc2)C(=O)c2ccccc21 [PRT4165]
  IC50: 3.9 µM
